Assay results as given in paper PMC9925730, “Controlled sequential in situ self-assembly and disassembly of a fluorogenic cisplatin prodrug for cancer theranostics” (Nature Communications, 2023).
“And” between values parts separate entries of the source, which are not always exact repeats. Equal values may be shown once.

How the values were obtained:
[1] = Urine and faeces analysis by ICP-OES (Pt element); assay type: in vivo, mice; parameters: Pt in urine / Pt in feces: unit not given beside the values
Procedure: page 47: determined using ELISA kits according to manufacturer 's protocol. Determination of the blood circulation half-life. […], or CDDP (at a dose of 2.25 mg kg-1 Pt) was i.v. injected into healthy female BALB/c nude mice (6-8 weeks old). […] The collected blood was digested with concentrated HNO3 (65-70%, 2 mL) and HCl (36~38%, 1 mL) at 90 °C overnight. The residues were then diluted with 5 mL 2% HNO3 and 5% HCl solution, and the concentrations of Pt element were determined by ICP-OES, which were further applied to calculate the contents of Pt element in the blood. The plot of the percentage of Pt element remained in the blood versus injection time to yield the pharmacokinetic time. Urine and Faeces analysis. […] Urine and faeces were collected at 2 (for 0-2 h), 4 (for 2-4 h), 8 (for 4- 8 h) and 12 h (for […]), which were diluted in methanol and centrifuged at 3,600 × g for 10 min, followed by filtering via a 0.22 μm syringe filter. The solutions were analyzed by HPLC (660 nm detection) to characterize all the mCy-containing compounds. Using the established standard curves for […] Cy-COOH, the amount of each compound in the urine and faeces could be calculated, which were further applied to determine the percentage of them in the urine and faeces. The data were summarized in Supplementary Tables 5-8. […] Urine and faeces were collected and weighed. The urine and faeces were digested with concentrated HNO3 (65~70%) and HCl (36~38%) at 90 °C for 24 h. The solution was diluted to 5 mL 2% HNO3 and 5% HCl solution, and the concentration of Pt element was measured by ICP-OES, which was further applied to calculate the percentage of Pt in corresponding urine and faeces. The data were summarized in Supplementary Tables 9 and 10. 47

[2] = General design summary of signals and cytotoxicity (Fig. 1a)
Excerpt: P-CyPt is designed to (1) offer activatable near-infrared (NIR) FL and PA signals for bimodality imaging through ALP-mediated in situ self-assembly and (2) release CDDP for on-demand therapy via GSH-triggered disassembly (Fig. 1a). […] After systemic administration, P-CyPt as a small molecule can extravasate and penetrate deeply into tumor tissues (Fig. 1b). In tumor tissues that are membrane-bound ALP positive, rapid dephosphorylation of P-CyPt by the membrane-bound ALP generates CyPt, switching on NIR FL (λem = 710 nm) and PA signals (λ = 700 nm); moreover, CyPt with increased hydrophobicity is susceptible to self-assembly into Pt(IV) nanoparticles (Pt^IVNPs), which turns on another PA signal (λ = 750 nm) resulting from the aggregation-caused bathochromic shift. The on-site formed Pt^IVNPs can anchor on the cell membranes, which attenuate diffusion, prolong retention, and enhance translocation into cells[32],[33]. Within tumor cells, the abundant endogenous GSH can reduce Pt(IV) into Pt(II), producing negatively charged Cy-COOH that promotes NPs disassembly and accelerates release of CDDP intracellularly. This process dramatically raises intracellular CDDP’s concentration while depletes GSH’s level to effectively kill tumor cells. Moreover, the disassembly of Pt^IVNPs into Cy-COOH further increases NIR FL (called as “ON-ON”) as the aggregation-caused quenching (ACQ) effect is eliminated; however, the PA signal at 750 nm is turned off but the PA signal at 700 nm is kept at “ON” state. The sequential switches in NIR FL and PA bimodal imaging signals can allow P-CyPt to reliably monitor the ALP-triggered in situ self-assembly and GSH-driven disassembly process in vivo, facilitating to guide precise chemotherapy of tumors.

[3] = Urine and faeces analysis by ICP-OES (Pt element); assay type: in vivo, mice; parameters: Pt in urine / Pt in feces: unit not given beside the values; remark: listed apart in the source
[4] = Urine and faeces analysis by HPLC (mCy-containing compounds); assay type: in vivo; details: Time period 8-12 h; individual mice
[5] = i.v. 2.25 mg kg-1 Pt, 0-2 h, ICP-OES

In the case of `[NH2][Pt]([NH2])([Cl])[Cl]` [CDDP, cisplatin], the “Percentage of Pt element excreted to the faeces” value (from here on “Percentage … to the faeces”) ([1]; 2-4 h) was 2.60 ± 0.45%, the “Percentage of Pt element excreted to the urine” value (shortened to “Percentage … to the urine”) ([1]; 2-4 h) was 10.94 ± 1.14% and the “Percentage … to the faeces” value ([1]; 4-8 h) was 4.55 ± 0.60%. The “Percentage … to the urine” value ([1]; 4-8 h) was 5.45 ± 0.94%, the “Percentage … to the urine” value ([1]; 8-12 h) was 3.48 ± 0.58% and the Pt in urine ([1]; Fig.6g, 0-2 h, mean of 3 mice) was 15.456. The Pt in urine ([1]; Fig.6g, 0-2 h, single mice) was 14.877 and 18.189 and 13.302, the Pt in urine ([1]; Fig.6g, 2-4 h, mean of 3 mice) was 10.936 and the Pt in urine ([1]; Fig.6g, 2-4 h, single mice) was 10.576 and 12.209 and 10.023. The Pt in urine ([1]; Fig.6g, 4-8 h, mean of 3 mice) was 5.452, the Pt in urine ([1]; Fig.6g, 4-8 h, single mice) was 5.332 and 6.452 and 4.572 and the Pt in urine ([1]; Fig.6g, 8-12 h, mean of 3 mice) was 3.482. For the same molecule, the Pt in feces ([1]; Fig.6h, 0-2 h, mean of 3 mice) was 0.193, the Pt in feces ([1]; Fig.6h, 0-2 h, single mice) was 0.190 and 0.242 and 0.148 and the Pt in feces ([1]; Fig.6h, 2-4 h, mean of 3 mice) was 2.596. The Pt in feces ([1]; Fig.6h, 2-4 h, single mice) was 2.468 and 3.099 and 2.222, the Pt in feces ([1]; Fig.6h, 4-8 h, mean of 3 mice) was 4.548 and the Pt in feces ([1]; Fig.6h, 4-8 h, single mice) was 4.452 and 5.187 and 4.005. The Pt in feces ([1]; Fig.6h, 8-12 h, mean of 3 mice) was 2.704, the “Pt accumulatively cleared (urine + faeces)” value ([1]; during 12 h) was ~ 45.3% and the Pt in feces ([1]; feces collected 0-2 h, mouse-1) was 0.190. It also gave a Pt in feces ([1]; feces collected 0-2 h, mouse-2) of 0.242, a Pt in feces ([1]; feces collected 0-2 h, mouse-3) of 0.148 and a Pt in feces ([1]; feces collected 2-4 h, mouse-1) of 2.468. The Pt in feces ([1]; feces collected 2-4 h, mouse-2) was 3.099, the Pt in feces ([1]; feces collected 2-4 h, mouse-3) was 2.222 and the Pt in feces ([1]; feces collected 4-8 h, mouse-1) was 4.452. It also gave a Pt in feces ([1]; feces collected 4-8 h, mouse-2) of 5.187, a Pt in feces ([1]; feces collected 4-8 h, mouse-3) of 4.005 and a Pt in feces ([1]; feces collected 8-12 h, mouse-1) of 2.646. For the same molecule, the Pt in feces ([1]; feces collected 8-12 h, mouse-3) was 2.294, the “Percentage … to the faeces” value [1, 5] was 0.19 ± 0.046% and the “Percentage … to the urine” value [1, 5] was 15.46 ± 2.49%. For the same molecule, the “Pt in urine, mean” value ([1]; urine collected 0-2 h, mean of 3 mice) was 15.456, the Pt in urine ([1]; urine collected 0-2 h, mouse-1) was 14.877 and the Pt in urine ([1]; urine collected 0-2 h, mouse-2) was 18.189. For the same molecule, the Pt in urine ([1]; urine collected 0-2 h, mouse-3) was 13.302, the “Pt in urine, mean” value ([1]; urine collected 2-4 h, mean of 3 mice) was 10.936 and the Pt in urine ([1]; urine collected 2-4 h, mouse-1) was 10.576. For the same molecule, the Pt in urine ([1]; urine collected 2-4 h, mouse-2) was 12.209, the Pt in urine ([1]; urine collected 2-4 h, mouse-3) was 10.023 and the “Pt in urine, mean” value ([1]; urine collected 4-8 h, mean of 3 mice) was 5.452. For the same molecule, the Pt in urine ([1]; urine collected 4-8 h, mouse-1) was 5.332, the Pt in urine ([1]; urine collected 4-8 h, mouse-2) was 6.452 and the Pt in urine ([1]; urine collected 4-8 h, mouse-3) was 4.572. For the same molecule, the “Pt in urine, mean” value ([1]; urine collected 8-12 h, mean of 3 mice) was 3.482, the Pt in urine ([1]; urine collected 8-12 h, mouse-1) was 3.482 and the Pt in urine ([1]; urine collected 8-12 h, mouse-2) was 4.062. The Pt in urine ([1]; urine collected 8-12 h, mouse-3) was 2.903, the Cytotoxicity [2] was “High” and the “Percentage … to the faeces” value ([3]; 8-12 h) was 2.70 ± 0.44%. For the same molecule, the Pt in urine ([3]; Fig.6g, 8-12 h, single mice) was 3.482 and 4.062 and 2.903, the Pt in feces ([3]; Fig.6h, 8-12 h, single mice) was 2.646 and 3.172 and 2.294 and the Pt in feces ([3]; feces collected 8-12 h, mouse-2) was 3.172.
With `CC1(C)C(/C=C/C2=C3Oc4cc(O)c(Cl)cc4C=C3CCC2)=[N+](CCCNC(=O)[C@@H](Cc2ccccc2)NC(=O)[C@@H](Cc2ccccc2)NC(=O)CCC(=O)[O][Pt]([NH2])([NH2])([OH])([Cl])[Cl])c2ccccc21` [CyPt] the “Percentage … to the faeces” value ([1]; 2-4 h) was 16.51 ± 1.34%, the “Percentage … to the faeces” value ([1]; 4-8 h) was 21.52 ± 1.73% and the “Percentage … to the faeces” value [1, 5] was 0.63 ± 0.21%. For the same molecule, the “Compound found in excreta (%), Supplementary Table S5” value [4] was 0%, the “Compound found in excreta (%), Supplementary Table S6” value [4] was 0.6127% and 0.8857% and 0.7667% and the “Compound found in excreta (%), Supplementary Table S7” value [4] was 0.79% and 1.63% and 1.075%. For the same molecule, the Cytotoxicity [2] was “Low”, the “FL at 710 nm” value [2] was “High” and the “PA at 700 nm” value [2] was “High”. For the same molecule, the “PA at 750 nm” value [2] was “Low” and the “Percentage … to the faeces” value ([3]; 8-12 h) was 3.69 ± 0.77%.
